Source: a melting point compilation (Tetko et al.; mined from patent text by program, amines drawn as free bases though some values may be those of a salt)

SMILES | melting point
CC(C)C(=O)Nc1cccc(-c2ccnc3c(C(=O)c4cccs4)cnn23)c1 | 180 to 181 °C
CC(CO)NC(=O)C(NC(=O)OCc1ccccc1)C(Cc1ccccc1)C(=O)O (centres undefined) | 110 to 111 °C
CCCCCCCCCCCCCCCCCCC(N)CN (centres undefined) | 98 to 101 °C
CCCCc1nc2c(N)nc3ccccc3c2n1CCNC(=S)Nc1ccc(-c2c3ccc(=O)cc-3oc3cc(O)ccc23)c(C(=O)O)c1 | > 245 °C
CCc1ccccc1N(C=C(C#N)C#N)N=C(C#N)C#N | 172 to 174 °C
CC(=NC12CC3CC(CC(C3)C1)C2)NC12CC3CC(CC(C3)C1)C2 | 255 to 258 °C
Cc1nnc(SCC2=C(C(=O)O)N3C(=O)C(N)C3SC2)s1 (centres undefined) | 206 °C
COc1cc(CN2C(=O)C3(COc4cc5c(cc43)OCCO5)c3ccccc32)cc(OC)c1 (centres undefined) | 192 to 195 °C
Cc1cc(Cn2cc(C(F)(F)C(F)(F)F)c(C(F)(F)C(F)(F)F)n2)ccc1NC(=O)c1cccc(Br)c1C(=O)N[C@@H](C)CS(C)=O (some centres undefined) | 127 to 129 °C
CCOC(=O)C1=C(N)N=C(SCC)C(C(=O)OCC)C1c1cccc(C#N)c1 (centres undefined) | 153 °C
CCCCCNc1nc(C)c(C(=O)c2ccc(Cl)c([N+](=O)[O-])c2)s1 | 99 to 104 °C
CSC(=NC(=O)OC(C)(C)C)NC(=O)OC(C)(C)C | 123 to 124 °C
COc1cc2nc(N3CCN(C(=O)C4CC=CC4)CC3)nc(N)c2cc1OC | 216 to 218 °C
Cn1ncnc1COc1nn2c(-c3ccccc3F)nnc2cc1C1CCCO1 (centres undefined) | 136 to 139 °C
CCOC(=O)C(C#N)=NOS(C)(=O)=O | 79 to 83 °C
CCOC(=O)c1c(COc2cccc(C)n2)nc2cc(OC)c(OC)cc2c1-c1ccc(OC)c(OC)c1 | 173 to 174 °C
Oc1ncc(-c2ccccc2)cn1 | 239 to 241 °C
O=C(Nc1c([N+](=O)[O-])ccc2c3c(oc12)CCCC3)c1c(Cl)cccc1Cl | 246 to 248 °C
N#CCC(=C(C#N)C#N)c1ccccc1 | 92 to 98 °C
COc1ccc2[nH]c(C)c(C3CN4CCC3CC4)c2c1 (centres undefined) | 232 to 234 °C
N#Cc1c(N2CCN(C(=O)c3cccs3)CC2)c2cscc2n(CC(=O)c2ccccc2)c1=O | 308 °C
OCCC(O)OCn1cc(Cl)c2c(Cl)ncnc21 (centres undefined) | 142 to 143 °C
O=C(NCC12CCCN(CCC1)C2)c1c[nH]c2ccccc12 | 139 to 142 °C

SMILES | melting point
Cn1cc(-c2cccc(C(F)(F)F)c2)c(=O)o1 | 132 to 134 °C
COc1ccc2c(c1)C13CCCC4OC41C(C2)N(C(=O)C1CC1)CC3 (centres undefined) | 134 to 136 °C
CCCn1c(=O)c2[nH]c(C3CCC(C(=O)OC)C3)nc2n(CCC)c1=O (centres undefined) | 188 to 194 °C
Cc1nc2cc3c4c(cccc4c2[nH]1)C(=O)N(O)C3=O | > 330 °C
N#Cc1c(OCC#CI)nsc1SC(F)F | 106 to 107 °C
CNS(=O)(=O)OCCOc1ccccc1 | 66 to 68 °C
CC(C)(C)OC(=O)N1CCN(CCC#N)CC1C(N)=O (centres undefined) | 117 to 118 °C
O=C1Nc2ccc(Br)cc2C1c1ncnc2c1cnn2C1CCCCC1 (centres undefined) | 305 to 308 °C
N#CN=C1CCCCN1C1=CC(CF)(CF)Oc2ccc(C(F)(F)C(F)(F)F)cc21 | 196 to 197 °C
Cc1nnsc1C(=O)Nc1ccc(-n2nc(C(F)(F)F)cc2C2CC2)nc1 | 170 to 172 °C
CON1CCC2(CC1)SC(=O)C(c1c(C)cc(C)cc1C)=C2O | 67 to 71 °C
CNC(=O)Nc1cc(C(C)(C)COC)on1 | 65 to 67 °C
O=C(O)CCCCCc1cccc2cncn12 | 144 to 147 °C
N#CC1=C(C2CC2)Nc2n[nH]cc2C1c1ccccc1Br (centres undefined) | > 250 °C
COC(=O)C(N)=Cc1ccc(OCC(O)CNC(C)C)c(Cl)c1 (centres undefined) | 122 to 123 °C
CC(=O)CCC(=O)Nc1cc(CO)cc(Nc2c3ccccc3nc3ccccc23)c1 | 197 to 199 °C
Cn1c(Sc2cc(C(F)(F)F)ccc2C(=O)O)n[nH]c1=O | 229 °C
COc1cccc2c1S(=O)(=O)c1ccccc1C2(CCOS(C)(=O)=O)CCOS(C)(=O)=O | 200 to 202 °C
COc1nc(NC(=O)NS(=O)(=O)c2ccccc2CCC(F)(F)F)nc(OC)n1 | 177 to 178 °C
CC(=S)NCC1CC(c2ccc(N3CCSCC3)c(F)c2)=NO1 (centres undefined) | 219 to 220 °C
O=C1c2ccccc2S(=O)CC1(CO)CO (centres undefined) | 108 to 111 °C
O=C(O)c1cc(C(F)(F)F)cc([N+](=O)[O-])c1O | 166 to 168 °C

Results, then the molecule that gave them:

melting point | SMILES
111 °C | CCN(CC)CC=CC(=O)Nc1cc2c(Nc3ccc(F)c(Cl)c3)ncnc2cc1OC1CCC1
154 to 155 °C | CCCCCCc1ccc(O)c(C(=O)Nc2ccc([N+](=O)[O-])cc2)c1
214 to 216 °C | Cc1ccc(F)c(NC(=O)c2ccccc2CN2C(=O)C3(COc4cc5c(cc43)CCO5)c3ccccc32)c1 (centres undefined)
241 °C | CC1(C)CCC(C)(C)c2c(OCc3ccc(F)cc3)cc(C(=O)/C=C/c3ccc(C(=O)O)cc3)cc21
91 to 93 °C | Cc1cccc(-c2[nH]c(C(C)C)nc2-c2cccc(-c3ccc(C(F)(F)F)cc3)c2)n1
115 to 117 °C | CCN(CC)c1ccc(-c2ncccc2S(=O)(=O)Nc2ncc(C)nc2OC)cc1
94 to 96 °C | CC1=CC(O)C(O)C(C)(C)CC1OC(=O)c1ccccc1 (centres undefined)
96 to 98 °C | CC(=NOc1ccc(C=O)cc1)c1ccc(C)cc1
125 °C | COc1cc(CC(=O)NCCCc2ccc(C)c(C)c2)ccc1OCCN
142 to 143 °C | CN(C(=O)c1ccc(CS(=O)(=O)Cn2cnc3ccccc32)cc1)C1CCCCC1
52 °C | COc1ccc(C=O)cc1C(C)(C)C
207 to 209 °C | CCOC(=O)c1nc(-c2ccsc2)n(-c2cccc(Cl)c2F)c1-c1ccc(F)c(Cl)c1
194 to 195 °C | CC1=NC(NC(=O)CCc2ccc(Cl)cc2Cl)C(=O)N(C)c2ccccc21 (centres undefined)
137 to 138 °C | CC1=NS(=O)(=O)N(C)C(Oc2cccnc2)=N1
209 to 211 °C | N#Cc1cc(-c2nc3cncnc3s2)ccc1Oc1ccccc1Cl
84 to 86 °C | C=C(Cn1ccnc1)c1ccccc1OCc1ccc(Cl)cc1Cl
232 °C | COc1ccc(C2C(C(=O)c3ccc(N4CCOCC4)cc3)=C(O)C(=O)N2c2ccc(C)nn2)cc1 (centres undefined)
225 to 226 °C | O=C(O)c1cccc(-n2cc(-c3ccccc3F)cn2)c1
257 to 258 °C | O=C1Nc2cccc(/C=C/c3ccccc3Cl)c2/C1=C/c1ccc[nH]1
58 to 60 °C | C=CCN1C(=O)c2cccc(C)c2Oc2ncccc21
248 to 249 °C | CC(C)(C)OC(=O)COc1ccc(NC(=O)NC(=O)c2ccc(C(N)=S)nc2)cc1
65 to 67 °C | COC(=O)c1ccc(F)c2c1OCC=C2
138 to 139 °C | COc1ccc2c(c1)C(CCNC(=O)C(F)(F)F)=C(c1ccccc1)C2
130 to 135 °C | CN(C)CC(O)Cn1c2ccccc2c2c3c(c4c5ccccc5n(C)c4c21)C(=O)NC3=O (centres undefined)
124 to 127 °C | COc1c(OCc2ccccc2)cc(C(=O)Cl)cc1OCc1ccccc1
184 to 186 °C | CC[C@H](C)COc1ccc(-n2cc(C(=O)O)cn2)cc1C#N
118 °C | CN(C1=CC(C)(C)Oc2ccc(OCCCC(F)(F)F)cc21)S(C)(=O)=O

melting point | SMILES
135 to 138 °C | COCCOCc1c(CN(C)CC(O)c2cccc(OC)c2)sc2c(=O)c(C(=O)NCc3ccc(Cl)cc3)cn(C)c12 (centres undefined)
90 to 92 °C | COc1ccc(C(=C/C=C/C(=O)NCCCc2ccncc2)c2ccc(OC)cc2)cc1
73 to 75 °C | C=CC(=O)OCC1(COC(=O)C=C)c2ccccc2-c2ccccc21
169 to 171 °C | COc1ccc(C(=O)Nc2c(C)c(C)c3c(c2C)C(c2ccc(C)cc2)C(C)(C)O3)cc1OC (centres undefined)
167 to 169 °C | O=C(C=Cc1ccc(N2CCCC2)cc1)c1ccc2c(c1)CCCC2
198 to 200 °C | COCc1cc(-c2ncc3[nH]c4ccc(Cl)c(Cc5ccc(Cl)cc5)c4c3c2COC)no1
158 to 161 °C | CC=Nc1cc(CO)cc(Nc2c3ccccc3nc3ccccc23)c1
58 °C | COc1ccc(S(=O)(=O)C(C)(CC2CCCCC2)C(=O)NO)cc1 (centres undefined)
128 °C | COc1cc(CC(C)=O)ccc1OCC(O)CN1CCN(c2ccccc2C)CC1 (centres undefined)
84 to 88 °C | Cc1c(C)c(O)c(CCC(C)(O)COc2ccc(CC3SC(=O)NC3=O)cc2)c(C)c1O (centres undefined)
186 to 187 °C | CN(CC(=O)O)C(=O)C(C)(C)Oc1ccc(C(=O)c2ccc(Cl)cc2)cc1
212 to 213 °C | O=C(CN1CCN(c2ccc([N+](=O)[O-])cc2)CC1)Nc1ccc(Nc2ccccc2)cc1
103 to 104 °C | Cc1cc(C)c(C(O)c2ccc(C(C)C)cc2)c(O)c1 (centres undefined)
244 to 247 °C | Cc1c(OCC(=O)O)ccc2c(=O)c3ccccc3oc12
132 to 134 °C | Cn1ccnc1C(=O)Nc1ccc(-n2nc(C(F)(F)F)cc2C2CC2)cc1
230 °C | CCOC(=O)c1ncc2[nH]c3ccc(N4CCCS4(=O)=O)cc3c2c1C
207 °C | Cn1c(=O)n(Cc2ccc(F)cc2)c(=O)c2cc(C(=O)c3nc(-c4cccnc4)c4ccccn34)ccc21
203 to 205 °C | O=C(O)C1CCc2onc(-c3ccc(Cl)cc3)c2C1 (centres undefined)
107 to 108 °C | CCOC(=O)c1ccnc(NC(=O)CCc2ccccc2)c1
151 to 155 °C | O=C1c2ccccc2CN1C1CCN(c2ccc(Cc3ccccc3)cc2)CC1
185 to 187 °C | Cc1ccccc1-c1cccc(/C=C/C(=O)Nc2ccc(CN3CCCCC3)cc2)c1
166 °C | O=C(O)C1CN(Cc2ccc(OCc3ccc(Cl)c(Cl)c3)cc2)C1
70 to 71 °C | CCO/C(=N/O)C1Cc2cc(C(=O)c3ccccc3F)c(O)c(C)c2O1 (centres undefined)
45 to 47 °C | CCOC(=O)c1oc2cccc(COC)c2c1C
201 to 202 °C | CCOC(=O)Cc1nn2c(-c3ccc(OC)cc3)nnc2c2ccccc12
161 to 162 °C | Cc1cccc(-c2ccnc3c(C#N)cnn23)c1
168 to 170 °C | Cc1ncnc(Nc2ccc(C(=O)CCC3CCN(Cc4ccccc4)CC3)cc2)c1C
